# Experiments:
# DDR1 = target: T1, DDR1 (Homo sapiens, UniProt Q08345); assay: LanthaScreen Europium Kinase Binding assay, DDR1; details: 5 nM DDR1, 20 nM Kinase Tracer 178, 1 h at rt; Ki from IC50 by Cheng-Prusoff; read-out: Ki DDR1
# T1 construct: purchased Carna Biosciences
# Protocol: (§1) DDR1 and DDR2 binding assays were performed using Life Technologies LanthaScreen™ Europium Kinase Binding assay. The compounds were incubated with 5 nM DDR1 (Carna Biosciences) or 5 nM DDR2 (Life Technologies) for 1 h at rt in white 384-well OptiPlate (PerkinElmer), containing 20 nM or 10 nM Kinase Tracer 178 respectively and 2 nM Europium labelled anti-GST antibody (Life Technologies) in assay buffer (50 mM HEPES pH 7.5, 10 mM MgCI2, 1 mM EGTA and 0.01% BRIJ35). The ratio of fluorescence emission 665 nm/615 nm after excitation at 340 nm was obtained using the Tecan Spark 20M plate reader. IC50 values were determined in GraphPad Prism 7.0 software, using 4 parameter model: log(inhibitor) vs. response. IC50 values were converted in Ki using the Cheng-Prusoff equation (Ki=IC50/(1+[Tracer]/Kd).
# DDR2 = target: T2, DDR2 (Homo sapiens, UniProt Q16832); assay: LanthaScreen Europium Kinase Binding assay, DDR2; details: 5 nM DDR2, 10 nM Kinase Tracer 178, 1 h at rt; Ki from IC50 by Cheng-Prusoff; read-out: Ki DDR2
# T2 construct: purchased Life Technologies
# T2 sequence (Q16832 22-855): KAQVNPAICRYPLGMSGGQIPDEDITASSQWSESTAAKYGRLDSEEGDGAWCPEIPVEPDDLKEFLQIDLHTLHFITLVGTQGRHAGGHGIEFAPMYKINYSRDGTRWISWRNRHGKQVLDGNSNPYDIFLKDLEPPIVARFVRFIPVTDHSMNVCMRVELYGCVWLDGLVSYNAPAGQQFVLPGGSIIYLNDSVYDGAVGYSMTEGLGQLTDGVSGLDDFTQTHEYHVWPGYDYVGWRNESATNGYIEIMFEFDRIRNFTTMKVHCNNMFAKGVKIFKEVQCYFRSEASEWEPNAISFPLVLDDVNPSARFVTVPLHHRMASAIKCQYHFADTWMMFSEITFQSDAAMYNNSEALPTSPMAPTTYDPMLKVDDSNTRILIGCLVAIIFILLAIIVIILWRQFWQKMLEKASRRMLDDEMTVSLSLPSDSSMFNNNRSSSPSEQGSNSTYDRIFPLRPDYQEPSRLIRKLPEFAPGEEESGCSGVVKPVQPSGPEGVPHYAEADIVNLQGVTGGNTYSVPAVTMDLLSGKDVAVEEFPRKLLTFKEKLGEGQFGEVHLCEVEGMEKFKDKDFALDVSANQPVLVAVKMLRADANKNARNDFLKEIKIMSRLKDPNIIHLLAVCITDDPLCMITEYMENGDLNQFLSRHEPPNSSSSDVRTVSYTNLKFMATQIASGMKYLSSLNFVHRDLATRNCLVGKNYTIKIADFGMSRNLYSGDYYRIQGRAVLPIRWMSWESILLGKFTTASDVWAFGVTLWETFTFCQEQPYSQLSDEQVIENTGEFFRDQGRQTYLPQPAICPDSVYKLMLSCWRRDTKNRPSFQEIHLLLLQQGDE
# Protocol: as §1
# T1 sequence (Q08345 19-913): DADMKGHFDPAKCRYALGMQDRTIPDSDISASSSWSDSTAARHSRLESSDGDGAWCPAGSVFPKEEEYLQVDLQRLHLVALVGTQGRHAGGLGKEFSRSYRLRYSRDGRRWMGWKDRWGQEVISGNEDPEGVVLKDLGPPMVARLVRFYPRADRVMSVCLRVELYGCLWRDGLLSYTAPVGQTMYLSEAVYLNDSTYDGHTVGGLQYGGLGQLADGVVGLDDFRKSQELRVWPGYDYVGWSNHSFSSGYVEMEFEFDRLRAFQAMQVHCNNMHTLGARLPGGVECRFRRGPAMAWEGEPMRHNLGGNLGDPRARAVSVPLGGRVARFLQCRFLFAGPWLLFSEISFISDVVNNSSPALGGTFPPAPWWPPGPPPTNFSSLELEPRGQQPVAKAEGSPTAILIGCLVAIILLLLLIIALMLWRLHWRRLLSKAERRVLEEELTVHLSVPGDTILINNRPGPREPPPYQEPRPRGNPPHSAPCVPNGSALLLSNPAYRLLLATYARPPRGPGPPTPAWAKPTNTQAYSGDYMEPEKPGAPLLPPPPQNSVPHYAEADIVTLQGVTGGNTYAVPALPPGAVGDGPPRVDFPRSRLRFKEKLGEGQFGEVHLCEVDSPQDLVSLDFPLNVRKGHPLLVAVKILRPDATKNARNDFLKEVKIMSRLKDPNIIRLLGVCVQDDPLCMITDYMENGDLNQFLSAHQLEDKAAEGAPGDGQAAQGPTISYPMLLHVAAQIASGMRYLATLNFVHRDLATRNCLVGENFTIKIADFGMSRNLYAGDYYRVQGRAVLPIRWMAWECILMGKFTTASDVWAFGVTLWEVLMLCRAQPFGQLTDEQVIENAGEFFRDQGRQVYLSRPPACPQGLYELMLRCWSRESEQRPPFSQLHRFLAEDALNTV
Ki (DDR1) [nM],Ki (DDR2) [nM],SMILES
< 5,5 to 25,"Cc1ccc(C(=O)Nc2cncc(C(F)(F)F)c2)cc1[C@@H]1CCN(c2cncc(C(=O)NCCN(C)C)c2)C1 [Example 23, (S)-N-(2-(dimethylamino)ethyl)-5-(3-(2-methyl-5-((5-(trifluoromethyl)pyridin-3-yl)carbamoyl)phenyl)pyrrolidin-1-yl)nicotinamide]"
< 5,5 to 25,"Cc1ccc(C(=O)Nc2cncc(C(F)(F)F)c2)cc1[C@@H]1CCN(c2cnc3cccnn23)C1 [Example 36, (S)-3-(1-(imidazo[1,2-b]pyridazin-3-yl)pyrrolidin-3-yl)-4-methyl-N-(5-(trifluoromethyl)pyridin-3-yl)benzamide]"
< 5,< 5,"Cc1ccc(C(=O)Nc2cc(OC(F)F)ccn2)cc1[C@@H]1CCN(c2cnn3cccnc23)C1 [Example 91, N-[4-(difluoromethoxy)-2-pyridyl]-4-methyl-3-[(3S)-1-pyrazolo[1,5-a]pyrimidin-3-ylpyrrolidin-3-yl]benzamide]"
5 to 25,25 to 100,"Cc1ccc(C(=O)Nc2cc(C3CC3)nn2C)cc1[C@@H]1CCN(c2cncnc2)C1 [Example 70, (S)-N-(3-cyclopropyl-1-methyl-1H-pyrazol-5-yl)-4-methyl-3-(1-(pyrimidin-5-yl)pyrrolidin-3-yl)benzamide]"
< 5,5 to 25,"Cc1ccc(C(=O)Nc2cc(C(F)(F)F)ncn2)cc1[C@@H]1CCN(c2cncc(C#N)c2)C1 [Example 8, (S)-3-(1-(5-cyanopyridin-3-yl)pyrrolidin-3-yl)-4-methyl-N-(6-(trifluoromethyl)pyrimidin-4-yl)benzamide]"
< 5,5 to 25,"Cc1ccc(C(=O)Nc2cc(OC(F)F)ccn2)cc1[C@@H]1CCN(c2cncc(C#N)n2)C1 [Example 94, (S)-3-(1-(6-cyanopyrazin-2-yl)pyrrolidin-3-yl)-N-(4-(difluoromethoxy)pyridin-2-yl)-4-methyl-benzamide]"
< 5,5 to 25,"Cc1ccc(C(=O)Nc2ccc(OC(F)(F)F)cn2)cc1[C@@H]1CCN(c2cncnc2)C1 [Example 20, (S)-4-methyl-3-(1-(pyrimidin-5-yl)pyrrolidin-3-yl)-N-(5-(trifluoromethoxy)pyridin-2-yl)benzamide]"
< 5,< 5,"Cc1ccc(C(=O)Nc2cncc(C(F)(F)F)c2)cc1[C@@H]1CCN(c2ncnc3[nH]ncc23)C1 [Example 129, (S)-3-(1-(1H-pyrazolo[3,4-d]pyrimidin-4-yl)pyrrolidin-3-yl)-4-methyl-N-(5-(trifluoromethyl)pyridin-3-yl)benzamide]"
5 to 25,25 to 100,"Cc1ccc(C(=O)Nc2cncc(C(F)(F)F)c2)cc1N1CC(Oc2ccc(N)nc2)C1 [Example 44, 3-(3-((6-aminopyridin-3-yl)oxy)azetidin-1-yl)-4-methyl-N-(5-(trifluoromethyl)pyridin-3-yl)benzamide]"
< 5,< 5,"Cc1ccc(C(=O)Nc2cncc(C(F)(F)F)c2)cc1[C@@H]1CCN(c2cncc(C(N)=O)c2)C1 [Example 1, (S)-5-(3-(2-methyl-5-((5-(trifluoromethyl)pyridin-3-yl)carbamoyl)phenyl)pyrrolidin-1-yl)nicotinamide]"
5 to 25,5 to 25,"Cc1ccc(C(=O)Nc2cc(C(F)(F)F)nn2C)cc1[C@@H]1CCN(c2cncnc2)C1 [Example 68, (S)-4-methyl-N-(1-methyl-3-(trifluoromethyl)-1H-pyrazol-5-yl)-3-(1-(pyrimidin-5-yl)pyrrolidin-3-yl)benzamide]"
< 5,< 5,"Cc1ccc(C(=O)Nc2cc(OC(F)F)ccn2)cc1[C@@H]1CCN(c2cnccc2C#N)C1 [Example 93, 3-[(3S)-1-(4-cyano-3-pyridyl)pyrrolidin-3-yl]-N-[4-(difluoromethoxy)-2-pyridyl]-4-methyl-benzamide]"
< 5,5 to 25,"Cc1ccc(C(=O)Nc2cncc(C(F)(F)F)c2)cc1[C@@H]1CCN(c2cncc(C(F)F)c2)C1 [Example 22, (S)-3-(1-(5-(difluoromethyl)pyridin-3-yl)pyrrolidin-3-yl)-4-methyl-N-(5-(trifluoromethyl)pyridin-3-yl)benzamide]"
< 5,< 5,"Cc1ccc(C(=O)Nc2cc(OC(F)(F)F)ccn2)cc1[C@@H]1CCN(c2cncc(C(N)=O)c2)C1 [Example 9, (S)-5-(3-(2-methyl-5-((4-(trifluoromethoxy)pyridin-2-yl)carbamoyl)phenyl)pyrrolidin-1-yl)nicotinamide]"
< 5,< 5,"COc1ccc(C(=O)Nc2cncc(C(F)(F)F)c2)cc1C1CCN(c2cncnc2)C1 (single isomer, unassigned) [Example 109, 4-methoxy-3-(1-(pyrimidin-5-yl)pyrrolidin-3-yl)-N-(5-(trifluoromethyl)pyridin-3-yl)benzamide]"
< 5,< 5,"Cc1ccc(C(=O)Nc2cncc(C(F)(F)F)c2)cc1[C@@H]1CCN(c2cnn3ccncc23)C1 [Example 32, (S)-4-methyl-3-(1-(pyrazolo[1,5-a]pyrazin-3-yl)pyrrolidin-3-yl)-N-(5-(trifluoromethyl)pyridin-3-yl)benzamide]"
< 5,< 5,"CNC(=O)c1cc2ncnc(N3CC[C@@H](c4cc(C(=O)Nc5cncc(C(F)(F)F)c5)ccc4C)C3)c2s1 [Example 108, (S)-N-methyl-4-(3-(2-methyl-5-((5-(trifluoromethyl)pyridin-3-yl)carbamoyl)phenyl)pyrrolidin-1-yl)thieno[3,2-d]pyrimidine-6-carboxamide]"
< 5,5 to 25,"Cc1ccc(C(=O)Nc2cncc(C(F)(F)F)c2)cc1[C@@H]1CCN(c2cnc3ccc(N4CCN(C)CC4)cn23)C1 [Example 72, (S)-4-methyl-3-(1-(6-(4-methylpiperazin-1-yl)imidazo[1,2-a]pyridin-3-yl)pyrrolidin-3-yl)-N-(5-(trifluoromethyl)pyridin-3-yl)benzamide]"
5 to 25,5 to 25,"Cc1ccc(C(=O)Nc2cncc(C(F)(F)F)c2)cc1N1CC(Oc2cncc(N)c2)C1 [Example 47, 3-(3-((5-aminopyridin-3-yl)oxy)azetidin-1-yl)-4-methyl-N-(5-(trifluoromethyl)pyridin-3-yl)benzamide]"
< 5,< 5,"CNC(=O)c1cncc(N2CC[C@@H](c3cc(C(=O)Nc4cncc(C(F)(F)F)c4)ccc3C)C2)c1 [Example 29, (S)-N-methyl-5-(3-(2-methyl-5-((5-(trifluoromethyl)pyridin-3-yl)carbamoyl)phenyl)pyrrolidin-1-yl)nicotinamide]"
< 5,5 to 25,"Cc1ccc(C(=O)Nc2cc(C(C)(C)C)nn2C)cc1[C@@H]1CCN(c2cncc(C(N)=O)c2)C1 [Example 5, (S)-5-(3-(5-((3-(tert-butyl)-1-methyl-1H-pyrazol-5-yl)carbamoyl)-2-methylphenyl)pyrrolidin-1-yl)nicotinamide]"
< 5,< 5,"Cc1ccc(C(=O)Nc2cncc(C(F)(F)F)c2)cc1[C@@H]1CCN(c2cnn3cccnc23)C1 [Example 35, (S)-4-methyl-3-(1-(pyrazolo[1,5-a]pyrimidin-3-yl)pyrrolidin-3-yl)-N-(5-(trifluoromethyl)pyridin-3-yl)benzamide]"
< 5,5 to 25,"COc1cnc2c(N3CC[C@@H](c4cc(C(=O)Nc5cncc(C(F)(F)F)c5)ccc4C)C3)cnn2c1 [Example 97, (S)-3-(1-(6-methoxypyrazolo[1,5-a]pyrimidin-3-yl)pyrrolidin-3-yl)-4-methyl-N-(5-(trifluoromethyl)pyridin-3-yl)benzamide]"
< 5,< 5,"Cc1ccc(C(=O)Nc2cc(OC(F)F)ccn2)cc1[C@@H]1CCN(c2cncnc2)C1 [Example 21, (S)-N-(4-(difluoromethoxy)pyridin-2-yl)-4-methyl-3-(1-(pyrimidin-5-yl)pyrrolidin-3-yl)benzamide]"

# Reference: patent US20260242353A1, “HETEROARYL DERIVATIVES AS DDRs INHIBITORS” (CHIESI FARMACEUTICI S.P.A., priority 2022, published 2026)
